Data published in PMC7238120, “Strong and Selective Inhibitory Effects of the Biflavonoid Selamariscina A against CYP2C8 and CYP2C9 Enzyme Activities in Human Liver Microsomes” (Pharmaceutics, 2020).

How the values were obtained:
[1] = molecular target: T1, CYP2C19 (Homo sapiens, UniProt P33261); experiment: Inhibition of CYP2C19 (omeprazole) activity in pooled human liver microsomes; type: in vitro ADME; conditions: substrate omeprazole 20 µM; pooled HLMs; read-out: IC50, P450 2C19
T1 construct: incubation mixtures containing pooled human liver microsomes (HLMs, XTreme 200, XenoTech); tissue XenoTech XTreme 200; host or cells: pooled human liver microsomes
T1 sequence (P33261 whole entry): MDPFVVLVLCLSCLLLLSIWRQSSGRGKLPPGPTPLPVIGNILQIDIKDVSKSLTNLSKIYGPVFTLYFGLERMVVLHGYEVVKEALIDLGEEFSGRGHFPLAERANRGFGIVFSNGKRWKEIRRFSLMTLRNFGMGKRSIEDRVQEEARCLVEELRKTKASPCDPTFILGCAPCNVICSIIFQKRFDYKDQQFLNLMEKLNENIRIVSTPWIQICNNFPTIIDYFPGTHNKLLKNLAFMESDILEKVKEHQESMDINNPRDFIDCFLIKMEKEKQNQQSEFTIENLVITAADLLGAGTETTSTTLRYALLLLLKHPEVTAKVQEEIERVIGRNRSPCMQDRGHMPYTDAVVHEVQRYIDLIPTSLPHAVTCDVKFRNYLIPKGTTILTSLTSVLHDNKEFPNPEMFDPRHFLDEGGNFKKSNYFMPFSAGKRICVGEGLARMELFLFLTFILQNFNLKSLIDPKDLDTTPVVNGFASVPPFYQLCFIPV
Protocol: (§1) The inhibitory potential of the five biflavonoids on the metabolism of nine P450 probe substrates was evaluated using previously developed methods with minor modifications. Biflavonoids were dissolved in methanol. The final concentration of methanol in the incubation mixture was 1.0% (v/v). We used these P450 probe substrates: phenacetin for CYP1A2, coumarin for CYP2A6, bupropion for CYP2B6, amodiaquine for CYP2C8, diclofenac for CYP2C9, omeprazole for CYP2C19, dextromethorphan for CYP2D6, chlorzoxazone for CYP2E1 and midazolam for CYP3A (Table 1). The incubation mixtures containing pooled human liver microsomes (HLMs, XTreme 200, XenoTech), P450 probe substrates, and inhibitor (0~20 µM) were pre-incubated at 37 °C for 5 min. The concentration range of the inhibitor varied (0, 0.002, 0.005, 0.02, 0.05, and 0.2 µM for CYP2C8; 0, 0.02, 0.05, 0.2, 0.5, and 2 µM for CYP2C9; 0, 0.5, 2, 5, 10, and 20 µM for other P450 isoforms). After pre-incubation, a reduced nicotinamide adenine dinucleotide phosphate (NADPH) generation system containing 1 unit/ml G6PDH, 1.3 mM β- nicotinamide adenine dinucleotide phosphate (β- NADP^+), 3.3 mM MgCl2, and 3.3 mM G6P was added to initiate a reaction, and further incubated for 10 min at 37 °C. The reaction was stopped by adding 50 μL of ice-cold acetonitrile containing 7 nM trimipramine (internal standard, IS). After centrifugation at 18,000 g (5 min, 4 °C), aliquots of supernatants were analyzed by LC–MS/MS (Shimadzu LCMS 8060 system, Shimadzu, Kyoto, Japan). All microsomal incubations were conducted in triplicate.
(§2) All metabolites and the IS were separated on a Kinetex XB-C18 column (100 × 2.10 mm, 2.6 μm, 100 Å; Phenomenex, Torrance, CA, USA) and analyzed using a Shimadzu LCMS 8060 triple-quadrupole mass spectrometer coupled with a Nexera X2 ultra high-performance liquid chromatography system (Shimadzu, Kyoto, Japan) equipped with an electrospray ionization interface. The mobile phase consisted of 0.1% formic acid in water (A) and 0.1% formic acid in acetonitrile (B). The elution condition was set as 8% B (0–0.5 min), 8%→60% B (0.5–5 min), 60% B (5–6 min), 60%→8% B (6–6.1 min) and 8% B (6.1–9 min) for the analysis of metabolites of P450 probe substrates and set as 0%→40% B (0–1 min), 40%→50% B (1–5 min), 50%→0% B (5–5.1 min), and 0% B (5.1–8 min) for the analysis of metabolites of UGT probe substrates. The flow rate was 0.2 mL/min. Electrospray ionization was performed in positive-ion mode at 4000 V or in negative-ion mode at −3500 V. The optimum operating conditions were determined as follows: vaporizer temperature, 300 °C; capillary temperature, 350 °C; collision gas (argon) pressure, 1.5 mTorr. Quantitation was conducted in selected reaction monitoring (SRM) modes with the precursor-to-product ion transition for each metabolite (Table 1 and Table 2).
We analyzed the data with Shimadzu LabSolution LC–MS software. The IC50 values were calculated by WinNonlin software (Pharsight, Mountain View, CA, USA). The type of inhibition and the apparent kinetic parameters for inhibitory activity (Ki) were determined by following several criteria: visual inspection of Dixon plots, Lineweaver–Burk double reciprocal plots, and secondary plots of Lineweaver–Burk plots versus biflavonoid concentrations, the size of the sum of squares of the residuals, Akaike Information Criteria values, the S.E. and 95% confidence interval of the parameter estimates from the nonlinear regression analysis using the WinNonlin software. The models tested included competitive, competitive partial, noncompetitive, noncompetitive partial, uncompetitive, uncompetitive partial, and mixed-type inhibition.

[2] = molecular target: T2, CYP2C8 (Homo sapiens, UniProt P10632); experiment: Inhibition of CYP2C8-catalyzed amodiaquine N-deethylation in pooled human liver microsomes; type: in vitro ADME; set-up: incubation mixtures containing pooled human liver microsomes (HLMs, XTreme 200, XenoTech); tissue XenoTech XTreme 200; host or cells: pooled human liver microsomes; conditions: for inhibition at 10 min, 0.5 µM: inhibitor 0.5 μM; for inhibition at 10 min, 0.5 µM / IC50: pooled HLMs 0.25 mg/mL; for Ki: amodiaquine 0.1, 0.4, 1 µM, average ± standard error, triplicate; for IC50: substrate amodiaquine 1 µM, read-out: IC50, P450 2C8
T2 sequence (P10632 1-490): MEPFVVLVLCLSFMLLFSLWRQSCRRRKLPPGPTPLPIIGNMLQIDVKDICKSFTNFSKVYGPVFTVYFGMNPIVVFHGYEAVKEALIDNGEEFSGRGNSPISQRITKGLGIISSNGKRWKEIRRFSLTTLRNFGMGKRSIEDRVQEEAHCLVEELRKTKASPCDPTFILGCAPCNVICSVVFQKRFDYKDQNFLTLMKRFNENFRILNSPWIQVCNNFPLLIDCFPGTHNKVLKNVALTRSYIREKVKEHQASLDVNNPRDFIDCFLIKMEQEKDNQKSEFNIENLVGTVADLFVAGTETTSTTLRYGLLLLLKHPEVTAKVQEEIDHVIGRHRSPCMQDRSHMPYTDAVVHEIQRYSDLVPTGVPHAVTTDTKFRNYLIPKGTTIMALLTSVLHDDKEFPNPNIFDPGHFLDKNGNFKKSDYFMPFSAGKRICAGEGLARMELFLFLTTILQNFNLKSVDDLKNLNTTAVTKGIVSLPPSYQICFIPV
Protocol: as §1
The other conditions were the same as in the cytochrome P450 inhibition study.
We used HLMs to determine the mechanisms and constants (Ki values) for selamariscina A inhibition of CYP1A2, CYP2B6, CYP2C8, CYP2C9 and CYP3A. The selamariscina A (0~50 μM) was added into the reaction mixtures, each of which contained concentrations of phenacetin (20, 50, and 100 μM), bupropion (20, 50, and 100 μM), amodiaquine (0.1, 0.4, and 1 μM), rosiglitazone (2, 5, and 10 μM), diclofenac (1, 4, and 10 μM), tolbutamide (50, 100, and 200 μM), and midazolam (0.5, 2, and 5 μM). The substrates were used at concentrations approximately near to their respective Km values. The concentration range of selamariscina A varied (0, 0.002, 0.005, 0.02, 0.05, and 0.2 μM for CYP2C8; 0, […], 0.02, 0.05, 0.2, and 0.5 μM for CYP2C9; 0, 0.2, 0.5, 2, 5, and 20 µM for CYP3A; 0, 0.5, 2, 5, 20, and 50 μM for CYP1A2 and CYP2B6). The other conditions were the same as in the cytochrome P450 inhibition study.
as §2
We analyzed the data with Shimadzu LabSolution LC–MS software. The IC50 values were calculated by WinNonlin software (Pharsight, Mountain View, CA, USA).

[3] = human, pooled human liver microsomes, probe amodiaquine

Row | Compound | IC50 [1] | Times weaker CYP2C8 inhibition than selamariscina A ([2]; IC50 comparison at 0.25 mg/mL microsomal protein) | inhibition at 10 min, 0.5 µM [2, 3] | inhibition at 10 min, 5 µM ([2]; human, pooled human liver microsomes, probe amodiaquine, inhibitor 5 μM, HLMs) | Mode of Inhibition, CYP2C8 amodiaquine ([2]; HLMs) | Ki ([2]; HLMs) | IC50 [2] | Times stronger CYP2C8 inhibitory potential than amentoflavone [2]
1 | CC(C)(O)c1ccccc1CC[C@@H](SCC1(CC(=O)O)CC1)c1cccc(/C=C/c2ccc3ccc(Cl)cc3n2)c1 [montelukast, reference compound] | > 50000 nM | more than 25 times | 52.7% | 86.1% | – | – | – | –
2 | O=c1cc(-c2ccc(O)c(-c3c(O)cc(O)c4c(=O)cc(-c5ccc(O)cc5)oc34)c2)oc2cc(O)cc(O)c12 [amentoflavone] | 3400 nM | – | – | – | Noncompetitive | 83 ± 9 nM | 84 nM | –
3 | O=c1cc(-c2ccc(O)c(-c3c(-c4ccc(O)cc4)oc4cc(O)cc(O)c4c3=O)c2)oc2cc(O)cc(O)c12 [taiwaniaflavone] | 5000 nM | – | – | – | Noncompetitive | 142 ± 26 nM | 120 nM | –
4 | O=c1cc(-c2ccc(O)c(-c3c(O)cc4oc(-c5ccc(O)cc5)cc(=O)c4c3O)c2)oc2cc(O)cc(O)c12 [robustaflavone] | 6400 nM | – | – | – | Noncompetitive | 84 ± 16 nM | 83 nM | –
5 | O=C1CC(c2cc(-c3c(O)ccc4c(=O)cc(-c5ccc(O)cc5)oc34)c(O)cc2O)Oc2cc(O)cc(O)c21 (centres unmarked) [selamariscina A] | 13300 nM | – | 92.8% | – | Noncompetitive | 18 ± 2 nM | 19 nM | more than 4.5 times
6 | O=c1cc(-c2ccc(O)cc2)oc2c(-c3c(O)cc(O)c4c(=O)cc(-c5ccc(O)cc5)oc34)c(O)cc(O)c12 [cupressuflavone] | 3000 nM | – | – | – | Noncompetitive | 103 ± 17 nM | 83 nM | –
